Converted amounts (≈) assume the structure as drawn. Like-named read-outs stand apart in the source and are kept apart here.
Experiments:
[1] = Cytotoxicity in MT-4 cells incubated without infection by HIV; type: cell-based; conditions: human; MT-4 cells without infection by HIV, 37° C., 5 days, MTT method; read-out: CC50 (compound concentration which causes death of 50% of the MT-4 cells)
Method: (§1) Virucidal test aqainst HIV:
(§2) In RPMI1640 culture medium containing 20 mM HEPES buffer solution, 10% bovine fetus serum, and 20 μg/mL gentamycin, 3×10^4 cells of MT-4 (which will be killed by infection with HIV) were infected with HIV at a rate of 0.02 HIV per cell. To the fractions of the culture, predetermined portions of a sample containing the thiadiazole derivative of the compound No. shown in Table 27 and 28 were added, and the culture fractions were incubated at 37° C. After incubation for 5 days, living cells were measured by the MTT method to derive the compound concentration (EC50) which is effective to protects 50% of the MT-4 cells from death by HIV. Separately, the MT-4 cells were incubated in the same manner without infection by HIV, and the compound concentration (CC50) which causes death of 50% of the MT-4 cells. The ratio of CC50 /EC50 is the selectivity index (S.I.).

HIV = assay: Virucidal test against HIV (protection of HIV-infected MT-4 cells, MTT method); type: cell-based; conditions: for S.I. (selectivity index, ratio CC50/EC50): CC50/EC50, MT-4 cells; for EC50: Human immunodeficiency virus 1, MT4, 120 h, read-out: EC50 (compound concentration effective to protect 50% of the MT-4 cells from death by HIV)
Method: as §1, §2

[2] = MT-4 cells, 0.02 HIV per cell, 37° C., 5 days, MTT method

| SMILES | CC50 at 120 h [1] | S.I. (selectivity index, ratio CC50/EC50) (HIV) | EC50 (HIV) | EC50 (HIV; [2]) |
| --- | --- | --- | --- | --- |
| CN(C)C(=O)Oc1nsnc1-c1cc(N)ccc1Cl [Compound 21, N,N-Dimethyl [3-(5-amino-2-chlorophenyl)-1,2,5-thiadiazol-4-yl] CARBAMATE] | 36 µg/mL (≈ 121 µM) | 240 | 0.15 µg/mL (≈ 0.502 µM) |  |
| CCCN(C)C(=O)Oc1nsnc1-c1cc(N)ccc1Cl [Compound 22, N-Methyl-N-propyl [3-(5-amino-2-chlorophenyl)-1,2,5-thiadiazol-4-yl] carbamate] | 22 µg/mL (≈ 67.3 µM) | 1048 | 0.021 µg/mL (≈ 0.0643 µM) |  |
| CN(C)C(=O)Oc1nsnc1-c1c(Cl)ccc(N)c1Cl [Compound 70, N,N-dimethyl [3-(3-amino-2,6-dichlorophenyl)-1,2,5-thiadiazol-4-yl] carbamate] | 9.4 µg/mL (≈ 28.2 µM) | 362 | 0.026 µg/mL (≈ 0.078 µM) |  |
| CCCN(C)C(=O)Oc1nsnc1-c1c(Cl)ccc(N)c1Cl [Compound 71, N-Methyl-N-propyl [3-(3-amino-2,6-dichlorophenyl)-1,2,5-thiadiazol-4-yl] carbamate] | 4.7 µg/mL (≈ 13 µM) | 2350 | 0.002 µg/mL (≈ 0.00554 µM) |  |
| CCCN(C)C(=O)Oc1nsnc1-c1c(Cl)ccc(C#N)c1Cl [Compound 87, N-Methyl-N-propyl [3-(2,6-dichloro-3-cyanophenyl)-1,2,5-thiadiazol-4-yl] carbamate] | 23 µg/mL (≈ 62 µM) | 7667 | 0.003 µg/mL (≈ 0.00808 µM) |  |
| CCCN(C)C(=O)Oc1nsnc1-c1c(Cl)ccc(C(=O)OC)c1Cl [Compound 91, N-Methyl-N-propyl [3-(2,6-dichloro-3-methoxycarbonylphenyl)-1,2,5-thiadiazol-4-yl] carbamate] | 9.1 µg/mL (≈ 22.5 µM) | 144 | 0.063 µg/mL (≈ 0.156 µM) |  |
| CCCN(C)C(=O)Oc1nsnc1-c1c(Cl)ccc(C(N)=O)c1Cl [Compound 93, N-methyl-N-propyl [3-(3-carbamoyl-2,6-dichlorophenyl)-1,2,5-thiadiazol-4-yl] carbamate] | 65 µg/mL (≈ 167 µM) | 59 | 1.1 µg/mL (≈ 2.83 µM) |  |
| CCCN(C)C(=O)Oc1nsnc1-c1c(F)ccc(N)c1Cl [Compound 99, N-Methyl-N-propyl [3-(3-amino-2-chloro-6-fluorophenyl)-1,2,5-thiadiazole-4-yl] carbamate] | 22 µg/mL (≈ 63.8 µM) | 2750 | 0.008 µg/mL (≈ 0.0232 µM) |  |
| CN(C)C=Nc1nsnc1-c1c(Cl)cccc1Cl [Compound 127, N^1 -Dimethyl-N^2-[3-(2,6-dichlorophenyl)-1,2,5-thiadiazol-4-yl] formamidine] | 31 µg/mL (≈ 103 µM) | 21 |  | 1.5 µg/mL (≈ 4.98 µM) |
| CCCN(C)C=Nc1nsnc1-c1c(Cl)cccc1Cl [Compound 128, N^1-methyl-N^1-propyl-N^2-[3-(2,6-dichlorophenyl)-1,2,5-thiadiazol-4-yl]formamidine] | 9.2 µg/mL (≈ 27.9 µM) | 48 |  | 0.19 µg/mL (≈ 0.577 µM) |
| CCN(C=Nc1nsnc1-c1c(Cl)cccc1Cl)CC [Compound 130, N^1-diethyl-N^2 - [3-(2,6-dichlorophenyl)-1,2,5-thiadiazol-4-yl]formamidine] | 14 µg/mL (≈ 42.5 µM) | 1000 |  | 0.014 µg/mL (≈ 0.0425 µM) |
| CCN(CC)C(C)=Nc1nsnc1-c1c(Cl)cccc1Cl [Compound 131, N^1-diethyl-N^2-[3-(2,6-dichlorophenyl)-1,2,5-thiadiazol-4-yl]acetamidine] | 5.4 µg/mL (≈ 15.7 µM) | 19 |  | 0.29 µg/mL (≈ 0.845 µM) |
| CN(C)S(=O)(=O)Oc1nsnc1-c1c(Cl)cccc1Cl [Compound 138] | 9.9 µg/mL (≈ 27.9 µM) | 9 |  | 1.1 µg/mL (≈ 3.11 µM) |
| Clc1cccc(Cl)c1-c1nsnc1OCc1ccccn1 [Compound 145] | 2.7 µg/mL (≈ 7.98 µM) | 39 |  | 0.07 µg/mL (≈ 0.207 µM) |
| Clc1cccc(Cl)c1-c1nsnc1OCc1cccnc1 [Compound 146] | 1.9 µg/mL (≈ 5.62 µM) | 6 |  | 0.3 µg/mL (≈ 0.887 µM) |
| O=[N+]([O-])c1ccccc1COc1nsnc1-c1c(Cl)cccc1Cl [Compound 149] | 8.6 µg/mL (≈ 22.5 µM) | 5 |  | 1.7 µg/mL (≈ 4.45 µM) |
| CSCOc1nsnc1-c1c(Cl)cccc1Cl [Compound 155] | > 100 µg/mL | > 270 |  | 0.37 µg/mL (≈ 1.2 µM) |
| COCOc1nsnc1-c1c(Cl)cccc1Cl [Compound 156] | 43 µg/mL (≈ 148 µM) | 24 |  | 1.8 µg/mL (≈ 6.18 µM) |
| COCCOCOc1nsnc1-c1c(Cl)cccc1Cl [Compound 157] | 46 µg/mL (≈ 137 µM) | 128 |  | 0.36 µg/mL (≈ 1.07 µM) |
| COCCOc1nsnc1-c1c(Cl)cccc1Cl [Compound 159] | 11 µg/mL (≈ 36 µM) | 5 |  | 2.2 µg/mL (≈ 7.21 µM) |
| Clc1cccc(Cl)c1-c1nsnc1OCCBr [Compound 160, 3-(2-bromoethoxy)-4-(2,6-dichlorophenyl)-1,2,5-thiadiazole] | 4.8 µg/mL (≈ 13.6 µM) | 15 |  | 0.32 µg/mL (≈ 0.904 µM) |
| CCCN(C)CCOc1nsnc1-c1c(Cl)cccc1Cl [Compound 161, 3-(2,6-dichlorophenyl)-4-[2-(N-methyl-N-propylamino)ethoxy]-1,2,5-thiadiazole] | 8.3 µg/mL (≈ 24 µM) | 10 |  | 0.8 µg/mL (≈ 2.31 µM) |
| CCCN(C)C(=O)c1nsnc1-c1ccccc1Cl [Compound 195, N-methyl-N-propyl 4-(2-chlorophenyl)-1,2,5-thiadiazole-3-carboxamide] | 37 µg/mL (≈ 125 µM) | 25 |  | 1.5 µg/mL (≈ 5.07 µM) |
| CCCN(C)C(=O)Cc1nsnc1-c1ccccc1Cl [Compound 202, N-methyl-N-propyl [3-(2-chlorophenyl)-1,2,5-thiadiazol-4-yl]acetamide] | 18 µg/mL (≈ 58.1 µM) | 7 |  | 2.5 µg/mL (≈ 8.07 µM) |
| CN(CC#N)C(=O)Oc1nsnc1-c1c(Cl)cccc1Cl [Compound 218, N-(cyanomethyl)-N-methyl [3-(2,6-dichlorophenvl)-1,2,5-thiadiazol-4-yl] carbamate] | 64 µg/mL (≈ 186 µM) | 168 | 0.38 µg/mL (≈ 1.11 µM) |  |
| CN(CCC#N)C(=O)Oc1nsnc1-c1c(Cl)cccc1Cl [Compound 219, N-(2-cyanoethyl)-N-methyl [3-(2,6-dichlorophenyli-1,2,5-thiadiazol-4-yl] carbamate] | 46 µg/mL (≈ 129 µM) | 2556 | 0.018 µg/mL (≈ 0.0504 µM) |  |
| CN(CCO)C(=O)Oc1nsnc1-c1c(Cl)cccc1Cl [Compound 220, N-(2-Hydroxyethyl)-N-methyl [3-(2,6-dichlorophenyl)-1,2,5-thiadiazol-4-yl] carbamate] | 63 µg/mL (≈ 181 µM) | 18 | 3.5 µg/mL (≈ 10.1 µM) |  |
| CN(CCCC(=O)O)C(=O)Oc1nsnc1-c1c(Cl)cccc1Cl [Compound 222, N-(3-carboxypropyl)-N-methyl [3-(2,6-dichlorophenyl)-1,2,5-thiadiazol-4-yl] carbamate] | > 100 µg/mL | > 71 | 1.4 µg/mL (≈ 3.59 µM) |  |
| CN(CCC(N)=O)C(=O)Oc1nsnc1-c1c(Cl)cccc1Cl [Compound 223, N-(2-carbamoylethyl)-N-methyl [3-(2,6-dichlorophenyl)-1,2,5-thiadiazol-4-yl] carbamate] | > 100 µg/mL | > 38 | 2.6 µg/mL (≈ 6.93 µM) |  |
| CCOC(=O)CCN(C)C(=O)Oc1nsnc1-c1c(Cl)cccc1Cl [Compound 224, N-[2-(ethoxycarbonyl)ethyl]-N-methyl [3-(2,6-dichlorophenyl)-1,2,5-thiadiazol-4-yl] carbamate] | 50 µg/mL (≈ 124 µM) | 385 | 0.13 µg/mL (≈ 0.322 µM) |  |

Reference: patent publication US5948916A, “Arylthiadiazole derivative and antiviral agent containing the same” (priority 1994, dated 1999)
